From DBAASP
In brackets after ≈: the same amount, converted by molar mass.

Experiments:
Assay in all cases: ≥ marks a high value that may be exact or a test limit, other limits are often not marked, values filed in µg/mL are converted to µM
[1] = system: Salmonella enterica subsp. enterica serovar Bonn CICC 21677
[2] = system: Salmonella typhimurium CMCC 50115
[3] = system: Salmonella enterica subsp. enterica serovar Enteritidis CMCC 50041
[4] = system: Salmonella enterica subsp. enterica serovar Blockley CICC 21489
[5] = system: Salmonella enterica subsp. enterica serovar Heidelberg CICC 21487
[6] = system: Salmonella enterica subsp. enterica serovar Meleagridis CICC 21511
[7] = system: Staphylococcus epidermidis ATCC 12228
Escherichia coli O157:H7 = system: Escherichia coli O157:H7
[8] = system: Salmonella enterica subsp. enterica serovar Braenderup ATCC H9812
[9] = system: Salmonella enterica subsp. enterica serovar Montevideo CICC 21588
[10] = system: Salmonella enterica subsp. enterica serovar Senftenberg CICC 21502
[11] = system: Salmonella enterica subsp. enterica serovar Potsdam CICC 21500
[12] = system: Salmonella enterica subsp. enterica serovar Dakar CICC 21507
[13] = system: Salmonella enterica subsp. enterica serovar Adelaide CICC 21505
[14] = system: Candida albicans ATCC 10231
[15] = system: Salmonella enterica subsp. enterica serovar Dublin CICC 21497
[16] = system: Salmonella enterica subsp. enterica serovar Thompson CICC 21480
[17] = system: Salmonella enterica subsp. enterica serovar Miami CICC 21509
[18] = system: Staphylococcus aureus ATCC 43300
[19] = system: Enterococcus faecalis ATCC 29212
[20] = system: Salmonella enterica subsp. enterica serovar Eastbourne CICC 21508
[21] = system: Staphylococcus aureus ATCC 29213
[22] = system: Salmonella enterica subsp. enterica serovar Wandsworth CICC 21504
[23] = system: Salmonella enterica subsp. enterica serovar Aberdeen CICC 21492
[24] = system: Salmonella enterica subsp. enterica serovar Kentucky CICC 21488
[25] = system: Salmonella enterica subsp. enterica serovar Bovismorbificans CICC 21499
[26] = system: Salmonella enterica subsp. arizonae CICC 21506
[27] = system: Salmonella enterica subsp. enterica serovar Saintpaul CICC 21486
[28] = system: Salmonella enterica subsp. enterica serovar Jerusalem CICC 21651
[29] = system: Salmonella enterica subsp. enterica serovar Agona CICC 21586
[30] = system: Salmonella enterica subsp. enterica serovar Anatum CICC 21498
[31] = system: Salmonella enterica subsp. enterica serovar Typhimurium CICC 21483
[32] = system: Micrococcus luteus DSM 1790
Escherichia coli BL21AI = system: Escherichia coli BL21AI
[33] = system: Klebsiella aerogenes ATCC 13048
[34] = system: Pseudomonas aeruginosa ATCC 27853
[35] = system: Enterococcus faecium ATCC 700221
[36] = system: Staphylococcus epidermidis ATCC 51625
[37] = system: Pseudomonas aeruginosa ATCC 19660
[38] = system: Acinetobacter baumannii ATCC 17978D-5
[39] = system: Streptococcus pneumoniae ATCC 49619
[40] = system: Staphylococcus aureus ATCC 33591
[41] = system: Staphylococcus aureus ATCC 15752
[42] = system: Escherichia coli KCTC 2223
[43] = system: Micrococcus luteus ATCC 10240
[44] = system: Salmonella typhimurium KCTC 2370
[45] = system: Staphylococcus epidermidis KCTC 1917
[46] = system: Staphylococcus aureus KCTC 1621
[47] = system: Bacillus subtilis KCTC 3068
[48] = system: Salmonella typhimurium KCTC 1926
[49] = system: Enterococcus faecalis KCTC 2011
[50] = system: Proteus vulgaris KCTC 2433
[51] = system: Escherichia coli KCTC 1682
[52] = system: Pseudomonas aeruginosa KCTC 1637

C[C@@H](O)[C@@H]1NC(=O)[C@@H](NC(=O)[C@H](CCCCN)NC(=O)[C@H](Cc2c[nH]c3ccccc23)NC(=O)[C@H](CCCCN)NC(=O)[C@@H](N)Cc2c[nH]c3ccccc23)CSSC[C@@H](C(=O)N[C@@H](CCCCN)C(=O)N[C@@H](Cc2c[nH]c3ccccc23)C(=O)N[C@@H](CCCCN)C(=O)N[C@@H](Cc2c[nH]c3ccccc23)C(N)=O)NC(=O)CNC(=O)[C@H](CO)NC(=O)[C@H](CCCCN)NC1=O [WKWKCTKSGCKWKW] gave an MIC [1] of 1.08 µM (≈ 2 µg/mL), an MIC [2] of 2.16 µM (≈ 3.99 µg/mL) and an MIC [3] of 4.31 µM (≈ 7.99 µg/mL). For the same compound, the MIC [4] was 4.31 µM (≈ 7.99 µg/mL), the MIC [5] was 1.08 µM (≈ 2 µg/mL) and the MIC [6] was 2.16 µM (≈ 3.99 µg/mL). For the same compound, the MIC [7] was 2.16 µM (≈ 3.99 µg/mL), the MIC (Escherichia coli O157:H7) was 2.16 µM (≈ 3.99 µg/mL) and the MIC [8] was 2.16 µM (≈ 3.99 µg/mL). For the same compound, the MIC [9] was 2.16 µM (≈ 3.99 µg/mL), the MIC [10] was 2.16 µM (≈ 3.99 µg/mL) and the MIC [11] was 1.08 µM (≈ 2 µg/mL). It also gave an MIC [12] of 2.16 µM (≈ 3.99 µg/mL), an MIC [13] of 2.16 µM (≈ 3.99 µg/mL) and an MIC [14] of 1.08 µM (≈ 2 µg/mL). The MIC [15] was 2.16 µM (≈ 3.99 µg/mL), the MIC [16] was 2.16 µM (≈ 3.99 µg/mL) and the MIC [17] was 4.31 µM (≈ 7.99 µg/mL). The MIC [18] was 4.31 µM (≈ 7.99 µg/mL), the MIC [19] was 1.08 µM (≈ 2 µg/mL) and the MIC [20] was 2.16 µM (≈ 3.99 µg/mL). For the same compound, the MIC [21] was 2.16 µM (≈ 3.99 µg/mL), the MIC [22] was 2.16 µM (≈ 3.99 µg/mL) and the MIC [23] was 2.16 µM (≈ 3.99 µg/mL). For the same compound, the MIC [24] was 2.16 µM (≈ 3.99 µg/mL), the MIC [25] was 2.16 µM (≈ 3.99 µg/mL) and the MIC [26] was 2.16 µM (≈ 3.99 µg/mL). It also gave an MIC [27] of 1.08 µM (≈ 2 µg/mL), an MIC [28] of 4.31 µM (≈ 7.99 µg/mL) and an MIC [29] of 2.16 µM (≈ 3.99 µg/mL). The MIC [30] was 2.16 µM (≈ 3.99 µg/mL) and the MIC [31] was 2.16 µM (≈ 3.99 µg/mL).

In the case of CC[C@H](C)[C@H](NC(=O)[C@H](CCCN=C(N)N)NC(=O)[C@H](CCCN=C(N)N)NC(=O)[C@@H]1CCCN1C(=O)[C@@H]1CCCN1C(=O)[C@@H](NC(=O)[C@@H]1CCCN1C(=O)[C@H](CCCN=C(N)N)NC(=O)[C@@H]1CCCN1C(=O)[C@H](CC(C)C)NC(=O)[C@H](Cc1ccc(O)cc1)NC(=O)[C@@H]1CCCN1C(=O)[C@@H]1CCCN1C(=O)[C@H](CCCCN)NC(=O)[C@H](CC(=O)O)NC(=O)[C@@H](N)C(C)C)[C@@H](C)O)C(=O)N[C@@H](Cc1ccc(O)cc1)C(=O)N[C@@H](CC(N)=O)C(=O)O [VDKPPYLPRPTPPRRIYN], the MIC [32] is reported as 28.7 µM (≈ 62.5 µg/mL) and the MIC (Escherichia coli BL21AI) is reported as ≥ 57.4 µM.

With C[C@H](NC(=O)[C@H](Cc1ccccc1)NC(=O)CNC(=O)[C@@H]1CCCN1C(=O)[C@@H](N)CS)C(=O)N[C@@H](CCCCN)C(=O)N[C@@H](CCCCN)C(=O)N[C@@H](Cc1ccccc1)C(=O)N[C@@H](C)C(=O)N[C@@H](CCCCN)C(=O)N[C@@H](CCCCN)C(=O)N[C@@H](Cc1ccccc1)C(=O)N[C@@H](CCCCN)C(=O)N[C@@H](CCCCN)C(=O)N[C@@H](Cc1ccccc1)C(=O)N[C@@H](C)C(=O)N[C@@H](CCCCN)C(=O)N[C@@H](CCCCN)C(=O)N[C@@H](Cc1ccccc1)C(=O)N[C@@H](C)C(=O)N[C@@H](CCCCN)C(=O)N[C@@H](Cc1ccccc1)C(=O)N[C@@H](C)C(=O)N[C@@H](Cc1ccccc1)C(=O)N[C@@H](C)C(=O)N[C@@H](Cc1ccccc1)C(=O)O [CPGFAKKFAKKFKKFAKKFAKFAFAF] the MIC [33] was 10.6 µM (≈ 32 µg/mL), the MIC [34] was 10.6 µM (≈ 32 µg/mL) and the MIC [35] was 5.28 µM (≈ 16 µg/mL). It also gave an MIC [36] of 5.28 µM (≈ 16 µg/mL), an MIC [37] of 10.6 µM (≈ 32 µg/mL) and an MIC [38] of 5.28 µM (≈ 16 µg/mL). It also gave an MIC [39] of 10.6 µM (≈ 32 µg/mL) and an MIC [40] of 10.6 µM (≈ 32 µg/mL).

In the case of CC(C)[C@H](NC(=O)[C@H](CCCCN)NC(=O)[C@@H](N)CCCN=C(N)N)C(=O)N[C@@H](CCCN=C(N)N)C(=O)NCC(=O)N1CCC[C@H]1C(=O)N1CCC[C@H]1C(=O)O [RKVRGPP], the MIC [41] is reported as ≥ 32 µM, the MIC [42] is reported as ≥ 32 µM and the MIC [43] is reported as ≥ 32 µM. The MIC [44] was ≥ 32 µM.

For CC(C)C[C@H](NC(=O)[C@H](CC(C)C)NC(=O)[C@H](CCCCN)NC(=O)[C@H](CC(C)C)NC(=O)[C@H](CC(C)C)NC(=O)[C@H](CCCCN)NC(=O)[C@H](CCCCN)NC(=O)[C@H](CC(C)C)NC(=O)[C@H](CC(C)C)NC(=O)[C@H](CCCCN)NC(=O)[C@H](CCCCN)NC(=O)[C@H](Cc1c[nH]c2ccccc12)NC(=O)[C@@H](N)CCCCN)C(=O)N[C@@H](CCCCN)C(=O)N[C@@H](CCCCN)C(=O)O [KWKKLLKKLLKLLKK], the MIC [45] was 22.6 µM (≈ 43.2 µg/mL), the MIC [46] was 8 µM (≈ 15.3 µg/mL) and the MIC [47] was 11.3 µM (≈ 21.6 µg/mL). The MIC [48] was ≥ 32 µM, the MIC [49] was 16 µM (≈ 30.5 µg/mL) and the MIC [50] was ≥ 32 µM. The MIC [51] was 22.6 µM (≈ 43.2 µg/mL) and the MIC [52] was ≥ 32 µM.
